# Literature values as cited in patent US20090093542A1, “Copper antagonist compositions” (priority 2007, published 2009).
# Columns and labels:
# [1] = long-term use in Wilson's disease
# [2] = solution of the free base itself
compound,measurement,setting,value
"CC(C)(S)[C@@H](N)C(=O)O [Penicillamine, 3-mercapto-D-valine]",solubility in alcohol,alcohol,slightly soluble
same,"solubility in ether, acetone, benzene, and carbon tetrachloride","ether, acetone, benzene, carbon tetrachloride",insoluble
same,solubility in water,water,freely soluble
CC(=O)[O-].CC(=O)[O-].[Zn+2] [Zinc acetate],long-term or major side effects in patients,[1],has not shown any long-term or major side effects
"NCCNCCNCCN [trientine, triethylenetetramine]",pH of a solution,[2],14
